Data: patent publication US12201641B2, “Compositions comprising Withania Somnifera extract for mammalian consumption” (SpecNova LLC, priority 2021, dated 2025)

Test: Unidirectional (A→B) permeability across Caco-2 cell monolayer
Conditions: human, Caco-2, pH 7.4, Caco-2 Permeability (Papp) (A→B); for Papp A→B at 120 min, 1 μg/mL: compound alone, 1 μg/mL in HBSS buffer, pH 7.4, 120 min
Description: The Caco-2 permeability of two Withania somnifera extracts prepared by the claimed method of the present application (EXT001 and EXT002) and one Withania somnifera extract prepared using an alternative method (ALT001) were measured for comparison. Caco-2 cells (ATCC HTB-37) were grown on 24 well Transwell plates for 21 days. as per internal protocol number MET-TDDC-011. On the day of experiment the transepithelial electrical resistance (TEER) was measured across the monolayer and wells with TEER greater than 200 ohm*cm^2 were used for the permeability assessment. Incubation buffer consisted of Hanks balanced salt solution (HBSS) without CaCl2 and MgCl2, adjusted to pH 7.4, for both the donor, and the receiver. […] Lucifer yellow was used as zero permeability reference to check membrane integrity.
The compound solutions were prepared in HBSS buffer (pH 7.4) at a concentration of 1 μg/mL for permeability assessment. 5 mg each of Withania somnifera extracts EXT002 and EXT001 were added to 5 mL of HBSS buffer and vortexed for 2 hours followed by filtration through 0.22 μm syringe filter. These solutions were used for permeability determination. […] The methanolic extract was filtered through 0.22 μm filter. This extract was concentrated to 1 mL by passing nitrogen gas at 40° C. for 1 hr. Then 20 μL of this extract was spiked in 2 mL of HBSS buffer and filtered through 0.22 μm filter. This solution was used for the permeability study.
The permeability assay was performed in triplicate for each compound or product. Prior to the permeability assay, the transwells were washed with in pre-warmed HBSS buffer. The medium in the insert was aspirated and then the transwells were transferred to a 24-well plate with blank HBSS buffer (600 μL) in each well, and compound solution (102.5 μL, of which 2.5 μL was sampled immediately as the zero-minute donor) was added to each insert. Receiver samples (25 μL) were collected at 60, and 120 minutes, and replaced with an equal volume of fresh pre-warmed receiver buffer (at 60 minutes). The donor side was sampled (2.5 μL) at 0 and 120 minutes. The assay was conducted at 37° C. in a humidified CO2 incubator.
For analysis, any necessary dilutions of samples were performed with HBSS, pH 7.4. 25 μL of sample was mixed with 100 μL of acetonitrile with 25 ng/mL of mitragynine internal standard (IS), and then mixed and filtered through 0.4 μm filter plate to by centrifugation for 5 minutes at 2,000 rpm to a polypropylene 96-well plate for analysis. The samples were assayed by LC-MS/MS method.
The apparent permeability coefficient (Papp) and recovery were calculated as follows: […]
Where, VA is the volume of the acceptor compartment; A is the diffusional area of the membrane (0.33 cm^2); T is the length of study; [Drug]ini,donor is the donor compound amount at 0 minute; [Drug]acceptor is the acceptor compound amount at 120 minute. The compounds with permeability above 5×10^−6 cm/s will be considered high permeability compounds while those with permeability below 5×10^−6 cm/s will be considered low permeability compounds.

Papp A→B at 120 min, 5 μg/mL [×10⁻⁶ cm/s] | SMILES | Papp A→B at 120 min, 1 μg/mL [×10⁻⁶ cm/s]
– | CC1=C(C)C(=O)O[C@@H]([C@@H](C)[C@H]2CC[C@H]3[C@@H]4CC=C5C[C@@H](O[C@@H]6O[C@H](CO[C@@H]7O[C@H](CO)[C@@H](O)[C@H](O)[C@H]7O)[C@@H](O)[C@H](O)[C@H]6O)C[C@H](O)[C@]5(C)[C@H]4CC[C@]23C)C1 [Withanolside V, withanoside V] | 4.03 ± 0.87
4.2 ± 1.79 | NS(=O)(=O)c1cc2c(cc1Cl)N=CNS2(=O)=O [Chlorothiazide, reference compound] | –
– | CC1=C(CO)C(=O)O[C@@H]([C@@H](C)[C@H]2CC[C@H]3[C@@H]4C[C@H]5O[C@]56[C@@H](O)C=CC(=O)[C@]6(C)[C@H]4CC[C@]23C)C1 [Withaferin A, withaferin A] | 4.55 ± 0.81
– | CC1=C(C)C(=O)O[C@@H]([C@](C)(O)[C@H]2CC[C@H]3[C@@H]4[C@@H]5O[C@@H]5[C@@]5(O)CC=CC(=O)[C@]5(C)[C@H]4CC[C@]23C)C1 [Withanolide A, withanolide A] | 3.23 ± 0.5
– | CC1=C(CO)C(=O)O[C@@H]([C@@H](C)[C@H]2CC[C@H]3[C@@H]4CC=C5C[C@@H](O[C@@H]6O[C@H](CO[C@@H]7O[C@H](CO)[C@@H](O)[C@H](O)[C@H]7O)[C@@H](O)[C@H](O)[C@H]6O)C[C@H](O)[C@]5(C)[C@H]4CC[C@]23C)C1 [Withanoside IV, withanoside IV] | 5.42 ± 0.69
